Source: patent US20120122085A1, “RECQL4/RECQL4 VARIANT-P53 COMPLEX FOR ALTERED MITOCHONDRIAL FUNCTION IN ROTHMUND-THOMSON SYNDROME” (NATIONAL INSTUTUTE OF IMMUNOLOGY, priority 2009, published 2012)
“Also recorded” adds a separate entry of the source.

Test system: RTS patient cells
Assay: Intracellular ROS in RTS cells measured by oxidation of CM-H2DCFDA after DNA damage
Format: cell-based, human
Details: post exposure to mitomycin C, FIG. 10E
Source text: By transmission electron microscopy (TEM) we observed that the mitochondrial cristae were distorted and the intercristal space expanded in all the RTS fibroblasts grown under asynchronous conditions (FIG. 10A). The extent of the cristae space is known to affect the overall chemiosmotic function in the cell (Mannella, 2006). […] Apart from ATP, mitochondria also produce the reactive oxygen species (ROS). Spontaneous ROS levels are usually low in normal cells as elevation of ROS levels can result in significant damage to cell structure (Schumacker, 2006). Indeed the level of ROS in asynchronous NHF was low as determined by the oxidation of 5-(and-6)-chloromethyl-2′,7′-dichlorodihydrofluorescein diacetate, acetyl ester (CM-H2DCFDA). […] Mitochondrial mass was determined by usage of a fluorescent dye Mitotracker Red 580 (200 nM, Invitrogen). […] The cells were subsequently washed, fixed and then analyzed in a Zeiss 510 Meta system with a 40×/0.95 Con objective. The fluorescence was captured initially for NHF and the acquisition parameters were kept unchanged for the capture of the fluorescence for the RTS cells. […] The activity was measured at 412 nm at 30° C. using 10 μg for each sample. Activity was expressed as nmole/min/mg of protein. Intracellular ROS in RTS cells was measured by the oxidation of CM-H2DCFDA (4 μM, Invitrogen). […]

**Q.** Which “effect on abnormally high ROS levels in RTS cells after DNA damage” value does the source give for `O=C1O[C@H]([C@@H](O)CO)C(O)=C1O` [ascorbic acid] here?
**A.** The value was “decreases the load of reactive oxygen species; also recorded: reversed this effect”.
